Measured values published in PMC4744035, “In Vivo, In Vitro, and In Silico Characterization of Peptoids as Antimicrobial Agents” (PLoS ONE, 2016).
Converted amounts (≈) assume the structure as drawn. Square brackets hold non-standard residues; d marks the D form. Peptide text beside a SMILES is read from it. Nspe = C[C@H](NCC(=O)O)c1ccccc1; Nphe = O=C(O)CNCc1ccccc1; Nlys = NCCCCNCC(=O)O

Legend:
erythrocytes = test: Hemolytic activity (HD10/HD50); format: cell-based
Description: Table 1 Characteristics of antimicrobial peptoids, screened for activity against B. subtilis and E. coli bacterial strains. | column: HD10 / HD50

E. faecalis F43559 (VRE) = test: microbe, parasite or virus in culture; conditions: F43559 (VRE)
Method: (§1) The MICs of test agents were measured using a modified broth micro-dilution method in Difco Mueller Hinton medium, on a panel of bacterial pathogens that were both susceptible and resistant to common antibiotics (S1 File). Briefly, serial dilutions were performed in 0.01% acetic acid containing 0.2% bovine serum albumin at 10-fold the desired final concentration. Ten μL of the 10-fold concentrated test reagents were added to each well of a 96-well polypropylene microtitre plate containing 90 μL of Mueller Hinton media per well. Bacteria were added to the plate from an overnight culture at a final concentration of 2–7 x 10^5 CFU/mL and incubated overnight at 37°C. The MIC is defined as the concentration at which no growth was observed.
(§2) Screening of peptoid antimicrobial activity against a panel of multidrug resistant superbugs was done according to the protocol described in the manuscript. The bacterial strains used in this panel included; P. aeruginosa PAO1 strain H103 [1], P. maltophilia ATCC#13637, S. aureus ATCC#25923 [1], E. faecalis ATCC#29212 [2], and E. cloacae 218R, constitutively expressing Class C chromosomal β-lactamase, were from the Hancock lab strains collection. An MRSA clinical isolate was kindly provided by Anthony Chow (Vancouver General Hospital, Vancouver, Canada). Two Klebsiella pneumoniae and two E. coli clinical isolates expressing extended spectrum β-lactamases (ESBL) were kindly provided by George Zhanel (Health Sciences Centre, Winnipeg, Canada). Vancomycin-resistant clinical isolates of Enterococcus faecalis and E. faecium were obtained from Ana M. Paccagnella (BC Centre for Disease Control, Vancouver, Canada). Three clinical isolates (#9, #198 and #213) of multi-drug resistant P. aeruginosa, were kindly provided by Carlos Kiffer (University of São Paulo, Brazil). […] Three P. aeruginosa clinical isolates of the Liverpool epidemic strain (LES) (H1027, H1030 and LES400) were all kindly provided by Craig Winstanley (University of Liverpool, UK). […] All tested bacterial strains were categorized as biohazard level 2 pathogens.

[1] = test system: K. pneumonia 61962 (ESBL); test: microbe, parasite or virus in culture
Method: as §1, §2

E. coli 63103 (ESBL) = test: microbe, parasite or virus in culture; conditions: 63103 (ESBL)
Method: as §1, §2

E. faecium T62764 (VRE) = test: microbe, parasite or virus in culture; conditions: T62764 (VRE)
Method: as §1, §2

P. aeruginosa 198 (MDR) = test: microbe, parasite or virus in culture; conditions: 198 (MDR)
Method: as §1, §2

E. faecalis W61950 (VRE) = test: microbe, parasite or virus in culture; conditions: W61950 (VRE)
Method: as §1, §2

E. faecium mic80 (VRE) = test: microbe, parasite or virus in culture; conditions: mic80 (VRE)
Method: as §1, §2

NIH 3T3 cells = test: Metabolic activity, MTS assay; format: cell-based, mouse
Method: NIH 3T3 mouse fibroblast cells were cultured in complete Dulbecco’s Modified Eagle’s Media. A peptoid solution plate (100 µL per well) was prepared by serial dilution of aqueous peptoid stock solutions in Hank’s balanced salt solution. A day-old cell monolayer was washed thoroughly with Hank’s balanced salt solution and replenished with 100 µL Hank’s balanced salt solution per well. Peptoid solutions were transferred onto the day-old cell monolayers, which contained approximately 5000 cells per well. […] The average of six replicate trials is reported.

P. aeruginosa 9 (MDR) = test: microbe, parasite or virus in culture; conditions: 9 (MDR)
Method: as §1, §2

[2] = test system: K. pneumonia 63575 (ESBL); test: microbe, parasite or virus in culture
Method: as §1, §2

P. aeruginosa 213 (MDR) = test: microbe, parasite or virus in culture; conditions: 213 (MDR)
Method: as §1, §2

[3] = test system: P. aeruginosa LES400 (MDR); test: microbe, parasite or virus in culture; conditions: LES400 (MDR)
Method: as §1, §2

S. aureus ATCC25923 = test: microbe, parasite or virus in culture; conditions: ATCC25923
Method: as §1, §2

[4] = test system: E. cloacae 218R Class C β-lactamase; test: microbe, parasite or virus in culture; conditions: 218R Class C β-lactamase
Method: as §1, §2

S. aureus C623 (MRSA) = test: microbe, parasite or virus in culture; conditions: C623
Method: as §1, §2

[5] = test system: P. aeruginosa H1027 (MDR); test: microbe, parasite or virus in culture; conditions: H1027 (MDR)
Method: as §1, §2

P. maltophilia ATCC13637 = test: microbe, parasite or virus in culture; conditions: ATCC13637
Method: as §1, §2

[6] = test system: P. aeruginosa H1030 (MDR); test: microbe, parasite or virus in culture; conditions: P. aeruginosa H1030 (MDR)
Method: as §1, §2

E. faecalis ATCC29212 = test: microbe, parasite or virus in culture; conditions: ATCC29212
Method: as §1, §2

E. coli 64771 (ESBL) = test: microbe, parasite or virus in culture; conditions: 64771 (ESBL)
Method: as §1, §2

[7] = test system: P. aeruginosa H103 (wild type); test: microbe, parasite or virus in culture; conditions: H103 (wild type)
Method: as §1, §2

E. coli ATCC 35218 = format: cell-based
Method: MICs against B. subtilis and E. coli screening bacterial strains were determined using serial dilution in 96-well microtiter plates in accordance with CLSI M7-A6 protocols. Briefly, peptoid solution in cation-adjusted Mueller-Hinton broth was prepared by 2:1 serial dilution with a total volume of 50 µL per well. In experimental wells, 50 µL of bacterial inoculums (1 x 10^6 CFU/mL) were added to the peptoid solutions. Positive controls consisted of 50 µL inoculums added to 50 µL cation-adjusted Mueller-Hinton broth containing no peptoid, while negative controls contained only cation-adjusted Mueller-Hinton broth. […] Experiments were reproducible among three independent replicates, each consisting of two parallel trials.

| SMILES | HD10 (hemolytic activity) (erythrocytes) | HD50 (hemolytic activity) (erythrocytes) | MIC (E. faecalis F43559 (VRE)) | MIC [1] | MIC (E. coli 63103 (ESBL)) | MIC (E. faecium T62764 (VRE)) | MIC (P. aeruginosa 198 (MDR)) | MIC (E. faecalis W61950 (VRE)) | MIC (E. faecium mic80 (VRE)) | MIC (P. aeruginosa 9 (MDR)) | MIC [2] | MIC (P. aeruginosa 213 (MDR)) | MIC [3] | MIC (S. aureus ATCC25923) | MIC [4] | MIC (S. aureus C623 (MRSA)) | MIC [5] | MIC (P. maltophilia ATCC13637) | MIC [6] | MIC (E. faecalis ATCC29212) | also measured |
| --- | --- | --- | --- | --- | --- | --- | --- | --- | --- | --- | --- | --- | --- | --- | --- | --- | --- | --- | --- | --- | --- |
| C[C@H](NCC(=O)N(CCCCN)CC(=O)N(CC(=O)N(CCCCN)CC(=O)N(CCCCN)CC(=O)N(CC(=O)N(CC(=O)N(CCCCN)CC(=O)N(CC(=O)N(CCCCN)CC(=O)N(CCCCN)CC(=O)N(CC(=O)N(CC(=O)N(CCCCN)CC(=O)N(CC(N)=O)[C@@H](C)c1ccccc1)[C@@H](C)c1ccccc1)[C@@H](C)c1ccccc1)[C@@H](C)c1ccccc1)[C@@H](C)c1ccccc1)[C@@H](C)c1ccccc1)[C@@H](C)c1ccccc1)c1ccccc1 [1B15mer-NLys4,10, H-(Nspe-NLys-Nspe-NLys-NLys-Nspe)2-Nspe-NLys-Nspe-NH2] (H-[Nspe][Nlys][Nspe][Nlys][Nlys][Nspe][Nspe][Nlys][Nspe][Nlys][Nlys][Nspe][Nspe][Nlys][Nspe]-NH2) | >200 / >200 | >200 / >200 | 256 µg/mL (≈ 116 µM) | 256 µg/mL (≈ 116 µM) | 256 µg/mL (≈ 116 µM) | 4 µg/mL (≈ 1.81 µM) | 16 µg/mL (≈ 7.26 µM) | 128 µg/mL (≈ 58.1 µM) | 32 µg/mL (≈ 14.5 µM) |  |  |  |  |  |  |  |  |  |  |  | ID50 (inhibitory dose, metabolic activity) (NIH 3T3 cells): 16 µM |
| C[C@@H](c1ccccc1)N(CC(N)=O)C(=O)CN(C(=O)CN(CCCCN)C(=O)CN(Cc1ccccc1)C(=O)CN(Cc1ccccc1)C(=O)CN(CCCCN)C(=O)CN(C(=O)CN(C(=O)CN(CCCCN)C(=O)CN(Cc1ccccc1)C(=O)CN(Cc1ccccc1)C(=O)CNCCCCN)[C@@H](C)c1ccccc1)[C@@H](C)c1ccccc1)[C@@H](C)c1ccccc1 [1-Npm2,3,8,9, H-(NLys-Npm-Npm-NLys-Nspe-Nspe)2-NH2] | 39 | > 200 | 8 µg/mL (≈ 4.54 µM) | 32 µg/mL (≈ 18.1 µM) | 8 µg/mL (≈ 4.54 µM) | 1 µg/mL (≈ 0.567 µM) | 8 µg/mL (≈ 4.54 µM) | 8 µg/mL (≈ 4.54 µM) | 4 µg/mL (≈ 2.27 µM) | 64 µg/mL (≈ 36.3 µM) | 16 µg/mL (≈ 9.07 µM) | 4 µg/mL (≈ 2.27 µM) | 4 µg/mL (≈ 2.27 µM) | 2 µg/mL (≈ 1.13 µM) | 8 µg/mL (≈ 4.54 µM) | 2 µg/mL (≈ 1.13 µM) | 2 µg/mL (≈ 1.13 µM) | 1 µg/mL (≈ 0.567 µM) | 16 µg/mL (≈ 9.07 µM) | 4 µg/mL (≈ 2.27 µM) | MIC (E. coli 64771 (ESBL)): 4 µg/mL (≈ 2.27 µM); MIC [7]: 4 µg/mL (≈ 2.27 µM); MIC E. coli (E. coli ATCC 35218): 6.3 µM (≈ 11.1 µg/mL) |
| C[C@@H](c1ccccc1)N(CC(N)=O)C(=O)CN(Cc1ccccc1)C(=O)CN(CCCCN)C(=O)CN(C(=O)CN(Cc1ccccc1)C(=O)CN(CCCCN)C(=O)CN(C(=O)CN(Cc1ccccc1)C(=O)CN(CCCCN)C(=O)CN(C(=O)CN(Cc1ccccc1)C(=O)CNCCCCN)[C@@H](C)c1ccccc1)[C@@H](C)c1ccccc1)[C@@H](C)c1ccccc1 [1-Npm2,5,8,11, H-(NLys-Npm-Nspe)4-NH2] (H-[Nlys][Nphe][Nspe][Nlys][Nphe][Nspe][Nlys][Nphe][Nspe][Nlys][Nphe][Nspe]-NH2) | 87 | > 200 | 4 µg/mL (≈ 2.27 µM) | 32 µg/mL (≈ 18.1 µM) | 8 µg/mL (≈ 4.54 µM) | 1 µg/mL (≈ 0.567 µM) | 8 µg/mL (≈ 4.54 µM) | 16 µg/mL (≈ 9.07 µM) | 4 µg/mL (≈ 2.27 µM) | 64 µg/mL (≈ 36.3 µM) | 16 µg/mL (≈ 9.07 µM) | 4 µg/mL (≈ 2.27 µM) | 8 µg/mL (≈ 4.54 µM) | 4 µg/mL (≈ 2.27 µM) | 8 µg/mL (≈ 4.54 µM) | 8 µg/mL (≈ 4.54 µM) | 2 µg/mL (≈ 1.13 µM) | 2 µg/mL (≈ 1.13 µM) | 16 µg/mL (≈ 9.07 µM) | 4 µg/mL (≈ 2.27 µM) | MIC (E. coli 64771 (ESBL)): 4 µg/mL (≈ 2.27 µM); MIC [7]: 4 µg/mL (≈ 2.27 µM); MIC E. coli (E. coli ATCC 35218): 6.3 µM (≈ 11.1 µg/mL) |
